The source of these data is patent US4072759A, “Novel benzylalcohol derivatives as antidiabetics and cardiotonics” (Tanabe Seiyaku Co., Ltd., priority 1976, dated 1978).

Structures are written as SMILES.

Broadly, the LD50 is the dose expected to kill half of the subjects tested. Lower therefore signals a more toxic substance.

Data set [1] in a line: decrease of blood sugar in mice, oral administration prior to subcutaneous injection of glucose. It is filed as in vivo. Here is the method: For example, when α-(3,4-dimethoxyphenethylaminomethyl)-2-hydroxybenzylalcohol is administered orally to mice at a dose of 10 mg/kg prior to subcutaneous injection of glucose (1 g/kg), said 2-hydroxybenzylalcohol derivative of the invention decreases the blood sugar level by about 30 %. On the other hand, when examined under the same conditions as above, 100 mg/kg of Phenformin (Chemical name: 1-phenethylbiguanide) are required to induce 13 % decrease in said blood sugar.

In data set [2] the test system is adrenergic β1-receptor. The conditions noted are these: cited from earlier work.
In data set [3] the test system is adrenergic β1-receptor. In words: cardiac contractile activity (general statement).
Data set [4] concerns adrenergic β1-receptor. Briefly: increase of cardiac contractile force after injection into femoral vein of dogs. The following applies: injected into femoral vein, 10 μg/kg. It is filed as in vivo.
A short description of data set [5]: 50 % lethal dose by intravenous injection to mice. The following applies: mouse, in vivo. An excerpt:
Further, the toxicity of the benzylalcohol derivative (I) of the present invention is remarkably low.

As for `N=C(N)NC(=N)NCCc1ccccc1` [Phenformin, 1-phenethylbiguanide, reference compound], in data set [1] (mice, same conditions, 100 mg/kg), the “decrease in blood sugar” value was 13%.
Turning to `COc1cc(CCNCC(O)c2ccc(O)c(O)c2)cc(OC)c1OC` (stereo not drawn) [α-(3,4,5-trimethoxyphenethylaminomethyl)-3,4-dihydroxybenzylalcohol], the “activation of adrenergic β1-receptor” value in the data set with adrenergic β1-receptor [2] is given as “selective activation of adrenergic β1 -receptor”.
Take `COc1ccc(CCNCC(O)c2ccccc2O)cc1OC` (stereo not drawn) [α-(3,4-dimethoxyphenethylaminomethyl)-2-hydroxybenzylalcohol]: in the data set with adrenergic β1-receptor [3], the cardiac contractile activity entry is listed as “no substantial cardiac contractile activity”. In addition, in data set [1] (mice, oral, 10 mg/kg, prior to subcutaneous glucose (1 g/kg)), the “decreases the blood sugar level” value was “about 30%”. Also, the “decrease of blood sugar (in words)” value in data set [1] (mouse, in vivo) is “remarkable decrease of blood sugar”.
For the compound `COc1ccc(CCNCC(O)c2ccc(O)c(O)c2)cc1OC` (stereo not drawn) [α-(3,4-dimethoxyphenethylaminomethyl)-3,4-dihydroxybenzylalcohol], the “activation of adrenergic β1-receptor” value in the data set on adrenergic β1-receptor [2] is “selective activation of adrenergic β1 -receptor”.
On to `COc1ccc(CCNCC(O)c2cccc(O)c2)cc1OC` (stereo not drawn) [α-(3,4-dimethoxyphenethylaminomethyl)-3-hydroxybenzylalcohol], for which the “increase the cardiac contractile force” value with adrenergic β1-receptor [4] is recorded as 55%.
For the compound `COc1ccc(CCNCC(O)c2ccc(O)cc2)cc1OC` (stereo not drawn) [α-(3,4-dimethoxyphenethylaminomethyl)-4-hydroxybenzylalcohol], in data set [5], the LD50 is around 198 mg/kg.
